From US20250277030A1, “ANTI-NAPI2B ANTIBODIES AND METHODS OF USE” (Zymeworks BC Inc., priority 2022, published 2025)

What was measured:
human NaPi2b = biological target: T1, human NaPi2b (Homo sapiens, UniProt O95436); test: Competition binding (epitope binning) by flow cytometry on HEK293-6e cells expressing human NaPi2b; settings: unlabeled competitor antibody 100 μg/mL, GFP- population
T1 construct: host or cells: HEK293-6e
T1 sequence (O95436 1-690): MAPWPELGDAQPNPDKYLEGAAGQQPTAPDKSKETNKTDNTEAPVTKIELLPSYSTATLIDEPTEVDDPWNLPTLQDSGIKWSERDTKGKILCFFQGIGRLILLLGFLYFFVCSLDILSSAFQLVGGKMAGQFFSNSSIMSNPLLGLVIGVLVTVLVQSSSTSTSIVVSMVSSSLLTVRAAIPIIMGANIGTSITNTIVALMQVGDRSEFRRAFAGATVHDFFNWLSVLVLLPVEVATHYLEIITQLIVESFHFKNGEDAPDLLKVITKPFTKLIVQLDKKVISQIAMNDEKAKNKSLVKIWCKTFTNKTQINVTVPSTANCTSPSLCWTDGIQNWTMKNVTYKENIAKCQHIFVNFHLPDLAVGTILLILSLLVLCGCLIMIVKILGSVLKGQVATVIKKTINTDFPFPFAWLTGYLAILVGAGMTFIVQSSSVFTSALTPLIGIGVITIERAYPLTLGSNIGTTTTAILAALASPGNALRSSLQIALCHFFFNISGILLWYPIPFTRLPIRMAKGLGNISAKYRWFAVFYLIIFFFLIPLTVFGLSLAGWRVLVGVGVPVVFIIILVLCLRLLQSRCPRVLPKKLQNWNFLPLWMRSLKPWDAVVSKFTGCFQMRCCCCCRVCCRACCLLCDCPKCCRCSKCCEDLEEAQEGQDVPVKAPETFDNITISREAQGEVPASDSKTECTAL
Method: Binding was assessed by flow cytometry using HEK293-6e cells as described below.
HEK293-6e cells were transfected for ˜24 hours to transiently express human NaPi2b (1 μg of pTT5-NaPi2b per 1 million cells) or transfected with GFP (ATUM, Menlo Park, CA; pD2610-v23, also 1 μg of DNA per 1 million cells). Following transfection, human NaPi2b-expressing HEK296-6e cells and transfected GFP-expressing HEK296-6e cells were mixed at 4:1 ratio. Each well of a V-bottom 96-well plate was seeded with 100,000 cells of the mixture and incubated with 100 μg/mL of unlabeled competitor anti-NaPi2b antibody for an hour on ice. Post incubation, cells were washed and stained with 1 μg/mL of AF647-conjugated anti-NaPi2b detection antibodies for an hour on ice. Following staining and washing, fluorescence was detected by flow cytometry on a BD LSRFortessa™ Cell Analyzer (BD Biosciences, Franklin Lake, NJ) with 10,000 minimum events collected per well. The AF647/APC-A GeoMean (fluorescence signal geometric mean, proportional to anti-Human AF647 binding) was calculated for the FITC/GFP negative live cell population and using FlowJo™ Version 10.8.1 (BD Biosciences, Franklin Lake, NJ). Percentage inhibition was calculated using the following formula: […]

cynomolgus NaPi2b = test: Flow cytometry binding to HEK293-6e cells transfected with cynomolgus NaPi2b (Example 5); settings: transfected HEK293-6e cells, 18-24 hours at 4° C.
Chain of cynomolgus NaPi2b (as listed by the source): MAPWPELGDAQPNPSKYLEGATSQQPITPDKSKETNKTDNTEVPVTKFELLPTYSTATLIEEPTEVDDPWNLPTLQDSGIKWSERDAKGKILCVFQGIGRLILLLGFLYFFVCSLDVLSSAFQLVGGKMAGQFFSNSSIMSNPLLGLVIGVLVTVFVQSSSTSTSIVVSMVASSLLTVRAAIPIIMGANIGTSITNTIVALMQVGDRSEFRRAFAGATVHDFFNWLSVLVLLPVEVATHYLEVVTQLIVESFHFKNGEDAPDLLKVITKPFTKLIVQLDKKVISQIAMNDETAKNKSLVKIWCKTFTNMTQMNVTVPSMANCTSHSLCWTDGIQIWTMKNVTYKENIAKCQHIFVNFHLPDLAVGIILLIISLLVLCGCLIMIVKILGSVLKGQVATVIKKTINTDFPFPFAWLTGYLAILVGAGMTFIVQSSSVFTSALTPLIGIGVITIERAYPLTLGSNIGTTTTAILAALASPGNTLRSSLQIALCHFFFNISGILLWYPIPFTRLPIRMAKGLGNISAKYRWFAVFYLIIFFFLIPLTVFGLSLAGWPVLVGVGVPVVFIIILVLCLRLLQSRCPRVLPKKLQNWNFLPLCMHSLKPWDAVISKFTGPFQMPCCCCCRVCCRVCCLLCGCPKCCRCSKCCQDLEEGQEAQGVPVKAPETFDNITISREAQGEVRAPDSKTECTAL
Method: The binding cross-reactivity of humanized antibody variant v29456 to human, cynomolgus and mouse NaPi2b was assessed by flow cytometry using HEK293-6e transfected cells.
Briefly, HEK293-6e cells were transfected for ˜24 hours to transiently express human NaPi2b, cynomolgus or mouse NaPi2b, at 1 μg of DNA per 1 million cells. Following transfection, 50,000 cells per well were seeded in V-bottom 96-well plates and incubated with 200 nM of primary antibody for 18-24 hours at 4° C. to prevent internalization. Post-incubation, cells were washed and stained with anti-Human IgG Fc AF647 conjugate (Jackson Immuno Research Labs, West Grove, PA, Cat. No. 109-605-098, Lot. No. 124868) at 4° C. for 1 hour. Following staining and washing, fluorescence was detected by flow cytometry on BD LSRFortessa™ Cell Analyzer (BD Biosciences, Franklin Lake, NJ) with 10,000 minimum events collected per well. The AF647/APC-A GeoMean (fluorescence signal geometric mean, proportional to anti-Human AF647 binding) was calculated for the live singlet cell population for each primary antibody using FlowJo™ v8 software (BD Biosciences, Franklin Lake, NJ). The Bmax and Kd of each primary antibody were calculated using GraphPad Prism Version 9 (GraphPad Software, San Diego, CA)

HCC-78 cells = test: In vitro cytotoxicity, 2D monolayer, CellTiter-Glo, HCC-78; format: cell-based, human; settings: HCC-78, 4 days
Method: (§1) The cytotoxicity as measured by cell growth inhibition of the humanized variant v29456 (H1L2) conjugated to various drug-linkers were assessed in a panel of NaPi2b-expressing cell lines as described below. Cell lines used were OVCAR-3 (ovarian carcinoma), IGROV-1 (ovarian carcinoma), and HCC-78 (lung carcinoma). ADCs with antibody palivizumab (anti-RSV) (v22277) were used as non-targeted controls.
(§2) OVCAR-3 were cultured in RPMI 1640 Medium, ATCC modification (Thermo Fisher Scientific, Waltham, MA) supplemented with 20% fetal bovine serum (FBS) (Thermo Fisher Scientific, Waltham, MA) and 0.01 μg/mL human insulin (Sigma-Aldrich, Oakville, ON). […] After incubation, CellTiter-Glo® reagent (Promega Corporation, Madison, WI) was added in all wells and luminescence corresponding to ATP present in each well was measured using a Synergy™H1 plate reader (BioTek Instruments, Winooski, VT). Percent cytotoxicity values were calculated by the following formula: (1−(Luminescence of Treated Cells/Average Luminescence of Untreated Cells))×100, and plotted against test article concentration using GraphPad Prism 9 software (GraphPad Software, San Diego, CA). EC50 values were calculated based on a non-linear regression log(agonist) versus response, variable slope (four parameters) by GraphPad Prism 9.

IGROV-1 cells = test: In vitro cytotoxicity, 2D monolayer, CellTiter-Glo, IGROV-1; format: cell-based, human; settings: IGROV-1, 4 days
Method: as §1, §2

OVCAR-3 cells = test: In vitro cytotoxicity, 2D monolayer, CellTiter-Glo, OVCAR-3; format: cell-based, human; settings: OVCAR-3, 4 days; IC = Incomplete Curve
Method: as §1, §2

Substance | Bmax (APC-A GeoMean), Cyno NaPi2b (cynomolgus NaPi2b) | EC50 (HCC-78 cells) [nM] | EC50 (IGROV-1 cells) [nM] | EC50 (OVCAR-3 cells) [nM] | also measured
v16955: Palivizumab (anti-RSV), negative control antibody in the competition binding | – | – | – | – | % Inhibition vs. irrelevant mAb, labeled detection antibody v16955 (negative control) (human NaPi2b; labeled detection antibody v16955 1 μg/mL): 0%; % Inhibition vs. irrelevant mAb, labeled detection antibody v18992 (MX35) (human NaPi2b; labeled detection antibody v18992 1 μg/mL): 0%; % Inhibition vs. irrelevant mAb, labeled detection antibody v18993 (lifastuzumab) (human NaPi2b; labeled detection antibody v18993 1 μg/mL): 0%; % Inhibition vs. irrelevant mAb, labeled detection antibody v23855 (human NaPi2b; labeled detection antibody v23855 1 μg/mL): 0%
v18992: anti-NaPi2b reference humanized antibody MX35 [reference compound] | 2,365 APC-A GeoMean | – | – | – | –
v18993: anti-NaPi2b reference humanized antibody lifastuzumab [reference compound] | 1,557 APC-A GeoMean | – | – | – | –
v22277-DL1: non-targeted control ADC of palivizumab v22277 with MC-GGFG-AM-DXd1 (DL1), DAR 8 | – | > 50 | > 50 | > 50 | –
v22277-DL3: non-targeted control ADC of palivizumab v22277 with MC-VC-PABC-MMAE (DL3), DAR 4 | – | 11.4 | 7.02 | 9.4 | –
